Some targets named below: P1 ParB (Punavirus P1, UniProt Q38420); ICE1056Fin (Haemophilus influenzae, UniProt A0A8I2XW01); RK2 KorB (Escherichia coli, UniProt P07674).
What all share (settings): labelled compound; 5 mM MgCl2, 50 mM KCl, Tris-HCl pH 8.0, 37 °C

P1 ParB, sequence (Q38420 1-333): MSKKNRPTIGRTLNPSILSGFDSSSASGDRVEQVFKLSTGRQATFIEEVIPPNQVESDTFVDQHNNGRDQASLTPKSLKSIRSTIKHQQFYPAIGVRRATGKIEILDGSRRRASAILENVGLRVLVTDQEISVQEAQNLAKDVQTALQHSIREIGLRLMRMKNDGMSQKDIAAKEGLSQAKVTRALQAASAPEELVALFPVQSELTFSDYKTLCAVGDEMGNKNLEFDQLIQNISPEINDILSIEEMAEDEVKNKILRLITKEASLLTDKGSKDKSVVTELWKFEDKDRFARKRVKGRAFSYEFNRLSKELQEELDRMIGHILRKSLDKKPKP
ICE1056Fin, sequence (A0A8I2XW01 1-185): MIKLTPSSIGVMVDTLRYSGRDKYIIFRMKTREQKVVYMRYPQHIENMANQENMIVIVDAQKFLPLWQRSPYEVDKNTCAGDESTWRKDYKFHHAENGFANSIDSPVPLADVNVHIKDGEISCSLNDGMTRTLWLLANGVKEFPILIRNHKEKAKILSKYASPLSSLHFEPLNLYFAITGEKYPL
RK2 KorB, sequence (P07674 whole entry): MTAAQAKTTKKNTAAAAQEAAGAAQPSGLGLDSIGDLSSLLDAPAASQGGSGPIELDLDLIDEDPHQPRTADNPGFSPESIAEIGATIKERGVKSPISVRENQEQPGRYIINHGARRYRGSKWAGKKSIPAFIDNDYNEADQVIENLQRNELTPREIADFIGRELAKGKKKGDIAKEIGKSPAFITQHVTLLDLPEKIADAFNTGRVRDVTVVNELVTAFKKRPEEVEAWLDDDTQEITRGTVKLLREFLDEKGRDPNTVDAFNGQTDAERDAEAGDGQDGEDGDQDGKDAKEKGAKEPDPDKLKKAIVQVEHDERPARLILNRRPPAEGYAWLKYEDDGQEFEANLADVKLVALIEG

Regarding `Nc1ncnc2c1ncn2[C@@H]1O[C@H](COP(=O)(O)OP(=O)(O)OP(=O)(O)O)[C@@H](O)[C@H]1O` [ATP], the “TLC ATPase assay, γ-phosphate release” value was “ICE1056Fin, P1 ParB and RK2 KorB also exhibited comparable ATPase activity” on P1 ParB; “ICE1056Fin, P1 ParB and RK2 KorB also exhibited comparable ATPase activity” on ICE1056Fin; “ICE1056Fin, P1 ParB and RK2 KorB also exhibited comparable ATPase activity” at RK2 KorB.

Source of the values: publication PMC4241021 (Nature communications, 2014).
